Laboratory results published in PubChem BioAssay (NCI).
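GI50: concentration for 50% inhibition of growth. TGI marks complete inhibition of growth.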

Assays:
Assay in all cases: NCI tumour cell line growth inhibition, 384-well format
OVCAR-3 ovarian = test system: OVCAR-3 ovarian
OVCAR-4 ovarian = test system: OVCAR-4 ovarian
NCI-H226 lung = test system: NCI-H226 lung
HOP-92 NSCLC = test system: HOP-92 NSCLC
SK-MEL-28 melanoma = test system: SK-MEL-28 melanoma
RXF 393 renal = test system: RXF 393 renal
NCI/ADR-RES ovarian = test system: NCI/ADR-RES ovarian
MALME-3M melanoma = test system: MALME-3M melanoma
MOLT-4 leukemia = test system: MOLT-4 leukemia
OVCAR-8 ovarian = test system: OVCAR-8 ovarian
CAKI-1 renal = test system: CAKI-1 renal
T-47D breast = test system: T-47D breast
BT-549 breast = test system: BT-549 breast
SF-295 CNS = test system: SF-295 CNS
TK-10 renal = test system: TK-10 renal
A498 renal = test system: A498 renal
UACC-62 melanoma = test system: UACC-62 melanoma
MCF7 breast = test system: MCF7 breast
RPMI-8226 leukemia = test system: RPMI-8226 leukemia
U251 glioblastoma = test system: U251 glioblastoma
786-0 renal = test system: 786-0 renal
KM12 colon = test system: KM12 colon
LOX IMVI melanoma = test system: LOX IMVI melanoma
EKVX NSCLC = test system: EKVX NSCLC
SK-MEL-5 melanoma = test system: SK-MEL-5 melanoma
M14 melanoma = test system: M14 melanoma
CCRF-CEM leukemia = test system: CCRF-CEM leukemia
HL-60(TB) leukemia = test system: HL-60(TB) leukemia
MDA-MB-468 breast = test system: MDA-MB-468 breast
SNB-19 CNS = test system: SNB-19 CNS
OVCAR-5 ovarian = test system: OVCAR-5 ovarian
IGROV1 ovarian = test system: IGROV1 ovarian
COLO 205 colon = test system: COLO 205 colon
SF-268 CNS = test system: SF-268 CNS
UACC-257 melanoma = test system: UACC-257 melanoma
NCI-H322M lung = test system: NCI-H322M lung
HS 578T breast = test system: HS 578T breast
NCI-H23 lung = test system: NCI-H23 lung
UO-31 renal = test system: UO-31 renal
HCC-2998 colon = test system: HCC-2998 colon
SNB-75 CNS = test system: SNB-75 CNS
ACHN renal = test system: ACHN renal
MDA-MB-231 breast = test system: MDA-MB-231 breast
SR leukemia = test system: SR leukemia
HT29 colon = test system: HT29 colon
MDA-MB-435 melanoma = test system: MDA-MB-435 melanoma
SF-539 CNS = test system: SF-539 CNS

In the case of `Cn1ncc2cc(-c3cnc(N)c(Cl)c3N3CCC4(CCNC4=O)CC3)ccc21`, the GI50 (OVCAR-3 ovarian) is reported as 23.5 µM, the TGI (OVCAR-3 ovarian) is reported as > 100 µM and the GI50 (OVCAR-4 ovarian) is reported as 97.1 µM. For the same compound, the TGI (OVCAR-4 ovarian) was > 100 µM, the GI50 (NCI-H226 lung) was 19.6 µM and the TGI (NCI-H226 lung) was 53.7 µM. The GI50 (HOP-92 NSCLC) was 41.4 µM, the TGI (HOP-92 NSCLC) was > 87.8 µM and the GI50 (SK-MEL-28 melanoma) was 39.6 µM. The TGI (SK-MEL-28 melanoma) was > 100 µM, the GI50 (RXF 393 renal) was 18.6 µM and the TGI (RXF 393 renal) was 42.9 µM. The GI50 (NCI/ADR-RES ovarian) was 31.4 µM, the TGI (NCI/ADR-RES ovarian) was > 83.3 µM and the GI50 (MALME-3M melanoma) was 40.9 µM. The TGI (MALME-3M melanoma) was > 85 µM, the GI50 (MOLT-4 leukemia) was 10.8 µM and the TGI (MOLT-4 leukemia) was 23.8 µM. The GI50 (OVCAR-8 ovarian) was 34.8 µM, the TGI (OVCAR-8 ovarian) was > 100 µM and the GI50 (CAKI-1 renal) was 20.6 µM. The TGI (CAKI-1 renal) was > 95.7 µM, the GI50 (T-47D breast) was 21.5 µM and the TGI (T-47D breast) was > 96.1 µM. For the same compound, the GI50 (BT-549 breast) was 38.1 µM, the TGI (BT-549 breast) was > 100 µM and the GI50 (SF-295 CNS) was 46.1 µM. For the same compound, the TGI (SF-295 CNS) was > 100 µM, the GI50 (TK-10 renal) was 38.2 µM and the TGI (TK-10 renal) was > 100 µM. The GI50 (A498 renal) was 10.2 µM, the TGI (A498 renal) was > 100 µM and the GI50 (UACC-62 melanoma) was 33.2 µM. The TGI (UACC-62 melanoma) was 97.6 µM, the GI50 (MCF7 breast) was 48.1 µM and the TGI (MCF7 breast) was > 100 µM. The GI50 (RPMI-8226 leukemia) was 3.6 µM, the TGI (RPMI-8226 leukemia) was 27.6 µM and the GI50 (U251 glioblastoma) was 21.3 µM. The TGI (U251 glioblastoma) was > 100 µM, the GI50 (786-0 renal) was 10.7 µM and the TGI (786-0 renal) was 25.4 µM. For the same compound, the GI50 (KM12 colon) was 32.4 µM, the TGI (KM12 colon) was > 100 µM and the GI50 (LOX IMVI melanoma) was 39.5 µM. The TGI (LOX IMVI melanoma) was > 100 µM, the GI50 (EKVX NSCLC) was 28.2 µM and the TGI (EKVX NSCLC) was > 91.8 µM. For the same compound, the GI50 (SK-MEL-5 melanoma) was 21.2 µM, the TGI (SK-MEL-5 melanoma) was 48.7 µM and the GI50 (M14 melanoma) was > 78.2 µM. The TGI (M14 melanoma) was > 100 µM, the GI50 (CCRF-CEM leukemia) was 14.3 µM and the TGI (CCRF-CEM leukemia) was 32.9 µM. It also gave a GI50 (HL-60(TB) leukemia) of 13.4 µM, a TGI (HL-60(TB) leukemia) of 26.2 µM and a GI50 (MDA-MB-468 breast) of 9.27 µM. The TGI (MDA-MB-468 breast) was 25.5 µM, the GI50 (SNB-19 CNS) was 63.1 µM and the TGI (SNB-19 CNS) was > 100 µM. For the same compound, the GI50 (OVCAR-5 ovarian) was 51 µM, the TGI (OVCAR-5 ovarian) was > 100 µM and the GI50 (IGROV1 ovarian) was 19.6 µM. For the same compound, the TGI (IGROV1 ovarian) was > 87 µM, the GI50 (COLO 205 colon) was 48.3 µM and the TGI (COLO 205 colon) was > 100 µM. For the same compound, the GI50 (SF-268 CNS) was 41.9 µM, the TGI (SF-268 CNS) was > 100 µM and the GI50 (UACC-257 melanoma) was 15.4 µM. For the same compound, the TGI (UACC-257 melanoma) was 31.8 µM, the GI50 (NCI-H322M lung) was 47.6 µM and the TGI (NCI-H322M lung) was > 100 µM. The GI50 (HS 578T breast) was 24.1 µM, the TGI (HS 578T breast) was 46.9 µM and the GI50 (NCI-H23 lung) was 34.2 µM. The TGI (NCI-H23 lung) was > 80.3 µM, the GI50 (UO-31 renal) was 32.3 µM and the TGI (UO-31 renal) was > 100 µM. The GI50 (HCC-2998 colon) was 43.1 µM, the TGI (HCC-2998 colon) was > 100 µM and the GI50 (SNB-75 CNS) was 58.3 µM. For the same compound, the TGI (SNB-75 CNS) was > 100 µM, the GI50 (ACHN renal) was 14.1 µM and the TGI (ACHN renal) was > 100 µM. The GI50 (MDA-MB-231 breast) was 32.8 µM, the TGI (MDA-MB-231 breast) was > 100 µM and the GI50 (SR leukemia) was 8.79 µM. For the same compound, the TGI (SR leukemia) was 21.7 µM, the GI50 (HT29 colon) was 16.6 µM and the TGI (HT29 colon) was > 59.9 µM. For the same compound, the GI50 (MDA-MB-435 melanoma) was > 87.5 µM, the TGI (MDA-MB-435 melanoma) was > 100 µM and the GI50 (SF-539 CNS) was 48.6 µM. The TGI (SF-539 CNS) was > 100 µM.
